Test results published in patent US20260028354A1, “TETRAHYDRONAPHTHALENE DERIVATIVES AS ESTROGEN RECEPTOR DEGRADERS” (REGENT OF THE UNIVERSITY OF MICHIGAN, priority 2022, published 2026).
Read-outs that look alike come from different tables or passages of the source.

Key:
ER in MCF-7 cells = ER in MCF-7 cells (Homo sapiens (Human), UniProt P03372); experiment: In-cell Western (ICW) ER degradation assay in MCF-7 cells; format: cell-based; details: for DC50: MCF-7, ER degradation, read-out: MCF7 DC50
Sequence of ER in MCF-7 cells (P03372 whole entry): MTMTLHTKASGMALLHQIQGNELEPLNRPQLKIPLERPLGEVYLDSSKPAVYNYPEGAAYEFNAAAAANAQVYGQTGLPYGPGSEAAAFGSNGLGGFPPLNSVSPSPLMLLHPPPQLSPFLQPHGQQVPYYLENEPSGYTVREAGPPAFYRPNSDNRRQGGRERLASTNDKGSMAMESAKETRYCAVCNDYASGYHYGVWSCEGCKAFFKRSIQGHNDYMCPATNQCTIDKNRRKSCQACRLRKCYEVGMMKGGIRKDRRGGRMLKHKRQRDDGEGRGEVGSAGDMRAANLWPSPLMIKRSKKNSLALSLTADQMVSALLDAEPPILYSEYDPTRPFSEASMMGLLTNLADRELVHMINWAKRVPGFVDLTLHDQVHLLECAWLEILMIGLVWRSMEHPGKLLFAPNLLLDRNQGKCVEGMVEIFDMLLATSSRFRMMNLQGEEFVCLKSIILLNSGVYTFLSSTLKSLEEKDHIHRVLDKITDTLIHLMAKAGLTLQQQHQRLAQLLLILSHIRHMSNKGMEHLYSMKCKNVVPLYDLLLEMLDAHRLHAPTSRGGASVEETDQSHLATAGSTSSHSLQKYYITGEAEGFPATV

MCF-7 cells = experiment: CellTiter-Glo (CTG) cell proliferation assay in MCF-7 cells; format: cell-based; details: Homo sapiens, MCF7, 144 h, MCF-7 cell proliferation, Day 6
Excerpt: CellTiter-Glo® (CTG) Assays in MCF-7 and T47D Cell Lines.
In vitro Assay: MCF-7 and T47D CTG assay

[1] = MCF7, read-out: MCF7 Dmax, MCF-7, maximal ER degradation, 16 hrs treatment
[2] = MCF7, MCF-7, maximal ER degradation, 16 hrs treatment, read-out: MCF7 Dmax

Structure (SMILES) | Dmax (ER in MCF-7 cells; [1]) [%] | DC50 (ER in MCF-7 cells; 16 hrs treatment) [nM] | IC50 (MCF-7 cells) [nM] | Dmax (ER in MCF-7 cells; [2]) [%]
COc1cc(N2CCC3(CC2)CC(CN2CCC4(CC2)COc2c4cc(Cl)c4c2CN([C@H]2CCC(=O)NC2=O)C4=O)C3)c(F)cc1[C@@H]1c2ccc(O)cc2CC[C@@H]1c1ccccc1 [Compound A200, (S)-3-(5-chloro-1′-((7-(2-fluoro-4-((1S,2S)-6-hydroxy-2-phenyl-1,2,3,4-tetrahydro-naphthalen-1-yl)-5-methoxy-phenyl)-7-azaspiro[3.5]nonan-2-yl)methyl)-6-oxo-6,8-dihydro-2H,7H-spiro[furo[2,3-e]isoindole-3,4′-piperidin]-7-yl)piperidine-2,6-dione] | > 75 | < 1 | < 10 | –
COC1(CCN2CCN3c4ccc5c(c4OC[C@H]3C2)CN([C@H]2CCC(=O)NC2=O)C5=O)CCN(c2ccc([C@@H]3c4ccc(O)cc4CC[C@@H]3c3ccccc3)cc2)CC1 [Compound A192, (S)-3-((R)-7-(2-(1-(4-((1R,2S)-6-hydroxy-2-phenyl-1,2,3,4-tetrahydronaphthalen-1-yl)-phenyl)-4-methoxypiperidin-4-yl)cthyl)-1-oxo-1,3,5,5a,6,7,8,9-octahydro-2H-pyrazino[1′,2′: 4,5][1,4]oxazino[2,3-e]isoindol-2-yl)piperidine-2,6-dione] | – | < 1 | > 100 | > 75
O=C1CC[C@H](N2Cc3c(ccc4c3OC[C@H]3CN(CC5CC6(CCN(c7cnc(C8c9ccc(O)cc9CCC8c8ccccc8)cn7)CC6)C5)CCN43)C2=O)C(=O)N1 (stereo partly drawn) [Compound A195, (3S)-3-((5aR)-7-((7-(5-(6-hydroxy-2-phenyl-1,2,3,4-tetra-hydronaphthalen-1-yl)pyrazin-2-yl)-7-azaspiro[3.5]nonan-2-yl)methyl)-1-oxo-1,3,5,5a,6,7,8,9-octahydro-2H-pyrazino [1′,2′:4,5][1,4]oxazino[2,3-e]isoindol-2-yl)piperidine-2,6-dione] | – | < 1 | > 100 | > 75
COc1cc(N2CCC3(CC[C@@H](CN4CCC5(CC4)COc4c5cc(Cl)c5c4CN([C@H]4CCC(=O)NC4=O)C5=O)CO3)CC2)c(F)cc1[C@@H]1c2ccc(O)cc2CC[C@@H]1c1ccccc1 [Compound A234, (S)-3-(5-chloro-1′-(((S)-9-(2-fluoro-4-((1S,2S)-6-hydroxy-2-phenyl-1,2,3,4-tetrahydronaphthalen-1-yl)-5-methoxyphenyl)-1-oxa-9-azaspiro[5.5]undecan-3-yl)methyl)-6-oxo-6,8-dihydro-2H,7H-spiro[furo[2,3-e]isoindole-3,4′-piperidin]-7-yl)piperidine-2,6-dione] | > 75 | < 1 | < 10 | –
COc1c([C@@H]2c3ccc(O)cc3CC[C@@H]2c2ccccc2)ccc(N2CCC3(CC2)CC(CN2CCC4(CC2)COc2cc5c(cc24)CN([C@H]2CCC(=O)NC2=O)C5=O)C3)c1F [Compound A199, (S)-3-(1′-((7-(2-fluoro-4-((1S, 2S)-6-hydroxy-2-phenyl-1,2,3,4-tetrahydronaphthalen-1-yl)-3-methoxyphenyl)-7-aza-spiro[3.5]nonan-2-yl)methyl)-7-oxo-5,7-dihydro-2H,6H-spiro[furo[2,3-f]isoindole-3,4′-piperidin]-6-yl)piperidine-2,6-dione] | 50 to 75 | < 1 | < 10 | –
O=C1CC[C@H](N2Cc3cc4c(cc3C2=O)OC[C@@H]2CN(CC3CC5(CCN(c6cnc(C7c8ccc(O)cc8CCC7c7ccccc7)cn6)CC5)C3)CCN42)C(=O)N1 (stereo partly drawn) [Compound A194, (3S)-3-((4aS)-3-((7-(5-(6-hydroxy-2-phenyl-1,2,3,4-tetra-hydronaphthalen-1-yl)pyrazin-2-yl)-7-azaspiro[3.5]nonan-2-yl)methyl)-8-oxo-1,2,3,4,4a,5,8,10-octahydro-9H-pyrazino [1′,2′:4,5][1,4]oxazino[2,3-f]isoindol-9-yl)piperidine-2,6-dione] | – | 1 to 10 | > 100 | > 75
COc1cc(N2CCC(CCN3CCN4c5cc(C)c6c(c5OC[C@H]4C3)CN([C@H]3CCC(=O)NC3=O)C6=O)CC2)c(F)cc1[C@@H]1c2ccc(O)cc2CC[C@@H]1c1ccccc1 [Compound A229, (S)-3-((R)-7-(2-(1-(2-fluoro-4-((1S,2S)-6-hydroxy-2-phenyl-1,2,3,4-tetrahydronaphthalen-1-yl)-5-methoxyphenyl)piper-idin-4-yl)ethyl)-12-methyl-1-oxo-1,3,5,5a,6,7,8,9-octahydro-2H-pyrazino[1′,2′:4,5][1,4]oxazino[2,3-e]isoindol-2-yl)-piperidine-2,6-dione] | – | < 1 | 10 to 100 | > 75
COc1cc(N2CC(CCN3CCC4(CC3)COc3c4ccc4c3CN([C@H]3CCC(=O)NC3=O)C4=O)C2)c(F)cc1[C@@H]1c2ccc(O)cc2CC[C@@H]1c1ccccc1 [Compound A206, (S)-3-(1′-(2-(1-(2-fluoro-4-((1S,2S)-6-hydroxy-2-phenyl-1,2,3,4-tetrahydronaphthalen-1-yl)-5-methoxyphenyl)azet-idin-3-yl)ethyl)-6-oxo-6,8-dihydro-2H,7H-spiro[furo[2,3-e]isoindole-3,4′-piperidin]-7-yl)piperidine-2,6-dione] | 50 to 75 | 1 to 10 | > 100 | –
COc1cc(N2CC3(CCC(CN4CCC5(CC4)COc4nc(C(=O)N[C@H]6CCC(=O)NC6=O)ccc45)CC3)C2)c(F)cc1[C@@H]1c2ccc(O)cc2CC[C@@H]1c1ccccc1 [Compound A179, N-((S)-2,6-dioxopiperidin-3-yl)-1′-((2-(2-fluoro-4-((1S,2S)-6-hydroxy-2-phenyl-1,2,3,4-tetrahydronaphthalen-1-yl)-5-methoxyphenyl)-2-azaspiro [3.5]nonan-7-yl)methyl)-2H-spiro[furo[2,3-b]pyridine-3,4′-piperidine]-6-carboxamide] | > 75 | < 1 | > 100 | –
COc1cc(N2CCC3(CC2)CC(CN2CCC4(CC2)COc2c4cc(OC)c4c2CN([C@H]2CCC(=O)NC2=O)C4=O)C3)c(F)cc1[C@@H]1c2ccc(O)cc2CC[C@@H]1c1ccccc1 [Compound A222, (S)-3-(1′-((7-(2-fluoro-4-((1S,2S)-6-hydroxy-2-phenyl-1,2,3,4-tetrahydronaphthalen-1-yl)-5-methoxyphenyl)-7-azaspiro[3.5]nonan-2-yl)methyl)-5-methoxy-6-oxo-6,8-dihydro-2H,7H-spiro[furo[2,3-e]isoindole-3,4′-piperidin]-7-yl)piperidine-2,6-dione] | > 75 | < 1 | < 10 | –
O=C1CC[C@H](N2Cc3c4c(cc(Cl)c3C2=O)C2(CCN(C[C@@H]3CCC5(CCN(c6ccc([C@@H]7c8ccc(O)cc8CC[C@@H]7c7ccccc7)cc6)CC5)OC3)CC2)CO4)C(=O)N1 [Compound A233, (S)-3-(5-chloro-1′-(((S)-9-(4-((1R,2S)-6-hydroxy-2-phenyl-1,2,3,4-tetrahydronaphthalen-1-yl)phenyl)-1-oxa-9-azaspiro[5.5]undecan-3-yl)methyl)-6-oxo-6,8-dihydro-2H,7H-spiro[furo[2,3-e]isoindole-3,4′-piperidin]-7-yl)piperidine-2,6-dione] | > 75 | < 1 | < 10 | –
COc1cc(N2CCC3(CC2)CC(CN2CCC4(CC2)COc2c4cc4c(c2Cl)C(=O)N([C@H]2CCC(=O)NC2=O)C4)C3)c(F)cc1[C@@H]1c2ccc(O)cc2CC[C@@H]1c1ccccc1 [Compound A218, (S)-3-(8-chloro-1′-((7-(2-fluoro-4-((1S,2S)-6-hydroxy-2-phenyl-1,2,3,4-tetrahydro-naphthalen-1-yl)-5-methoxy-phenyl)-7-azaspiro[3.5]nonan-2-yl)methyl)-7-oxo-5,7-dihydro-2H,6H-spiro[furo[2,3-f]isoindole-3,4′-piperidin]-6-yl)piperidine-2,6-dione] | > 75 | < 1 | < 10 | –
COc1cc(N2CC(CCN3CCN4c5ccc6c(c5OC[C@H]4C3)CN([C@H]3CCC(=O)NC3=O)C6=O)C2)c(F)cc1[C@@H]1c2ccc(O)cc2CC[C@@H]1c1ccccc1 [Compound A204, (S)-3-((R)-7-(2-(1-(2-fluoro-4-((1S,2S)-6-hydroxy-2-phenyl-1,2,3,4-tetrahydronaphthalen-1-yl)-5-methoxyphenyl)azet-idin-3-yl)ethyl)-1-oxo-1,3,5,5a, 6,7,8,9-octahydro-2H-pyrazino [1′,2′:4,5][1,4]oxazino[2,3-e]isoindol-2-yl)piperidine-2,6-dione] | – | 1 to 10 | > 100 | 50 to 75
COc1cc(N2CCC3(CC[C@H](CN4CCC5(CC4)COc4c5cc(C)c5c4CN([C@H]4CCC(=O)NC4=O)C5=O)CO3)CC2)c(F)cc1[C@@H]1c2ccc(O)cc2CC[C@@H]1c1ccccc1 [Compound A230, (S)-3-(1′-(((R)-9-(2-fluoro-4-((1S,2S)-6-hydroxy-2-phenyl-1,2,3,4-tetrahydronaphthalen-1-yl)-5-methoxyphenyl)-1-oxa-9-azaspiro[5.5]undecan-3-yl)methyl)-5-methyl-6-oxo-6,8-dihydro-2H,7H-spiro[furo[2,3-e]isoindole-3,4′-piperidin]-7-yl)piperidine-2,6-dione] | > 75 | < 1 | < 10 | –
O=C1CC[C@H](N2Cc3c(ccc4c3OCC43CCN(CC4CCC5(CC4)CN(c4ccc([C@@H]6c7ccc(O)cc7CC[C@@H]6c6ccccc6)cc4)C5)CC3)C2=O)C(=O)N1 [Compound A177, (S)-3-(1′-((2-(4-((1R,2S)-6-hydroxy-2-phenyl-1,2,3,4-tetra-hydronaphthalen-1-yl)phenyl)-2-azaspiro[3.5]nonan-7-yl)-methyl)-6-oxo-6,8-dihydro-2H,7H-spiro[furo[2,3-e]iso-indole-3,4′-piperidin]-7-yl)-piperidine-2,6-dione] | > 75 | < 1 | > 100 | –
